Reference: ChEMBL document CHEMBL1126894 (J Med Chem, 1993)
Counter-ions that a name gives are not always drawn.

Experiments:
[1] = target: T1, 5-hydroxytryptamine receptor 1A (Rattus norvegicus, UniProt P19327); test: Binding affinity by measuring displacement of [3H]-8-OH-DPAT from 5-hydroxytryptamine 1A receptor in rat hippocampus; assay type: tissue-based
T1 sequence (P19327 whole entry): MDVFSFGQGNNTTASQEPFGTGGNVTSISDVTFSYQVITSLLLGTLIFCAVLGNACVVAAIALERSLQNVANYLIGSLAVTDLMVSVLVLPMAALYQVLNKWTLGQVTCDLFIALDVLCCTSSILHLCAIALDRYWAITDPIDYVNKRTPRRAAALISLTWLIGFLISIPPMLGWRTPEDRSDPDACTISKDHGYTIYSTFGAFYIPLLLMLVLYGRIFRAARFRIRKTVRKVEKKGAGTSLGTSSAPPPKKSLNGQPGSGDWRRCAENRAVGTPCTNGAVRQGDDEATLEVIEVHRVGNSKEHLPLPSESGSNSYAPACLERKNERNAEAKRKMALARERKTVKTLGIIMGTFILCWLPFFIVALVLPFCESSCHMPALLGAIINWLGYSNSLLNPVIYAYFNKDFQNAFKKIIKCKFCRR

[2] = target: T1, 5-hydroxytryptamine receptor 1A; test: Inhibitory concentration against 5-hydroxytryptamine 1A receptor
Mus musculus [3] = test: Ability to reverse scopolamine-induced amnesia in a passive avoidance test to assess memory impairment administered perorally 1 mg/kg (no. of mice); assay type: functional; details: route oral
D(2) dopamine receptor = D(2) dopamine receptor (Homo sapiens, UniProt P14416); test: Binding affinity for DA2 receptor
Mus musculus [4] = test: Ability to reverse scopolamine-induced amnesia in a passive avoidance test to assess memory impairment administered perorally 10 mg/kg; assay type: functional; details: route oral
Mus musculus [5] = test: Ability to reverse scopolamine-induced amnesia in a passive avoidance test to assess memory impairment administered perorally 3 mg/kg; assay type: functional; details: route oral
Mus musculus [6] = test: Ability to reverse scopolamine-induced amnesia in a passive avoidance test to assess memory impairment administered perorally 30 mg/kg; assay type: functional; details: route oral
Rattus norvegicus [7] = test: Anticonflict activity on water lick conflict test in rats by measuring no. of shocks in 5 min. administered perorally at 30 mg/kg; assay type: functional; details: route oral
Rattus norvegicus [8] = test: Anticonflict activity on water lick conflict test in rats is no of shocks in 5 min. administered perorally 1 mg/kg (no. of rats); assay type: functional; details: route oral
Rattus norvegicus [9] = test: Anticonflict activity on water lick conflict test in rats by measuring no. of shocks in 5 min. administered perorally at 3 mg/kg; assay type: functional; details: route oral
[10] = target: T1, 5-hydroxytryptamine receptor 1A; test: Binding affinity for 5-hydroxytryptamine 1A receptor by use of [3H]8-OH-DPAT in male rat
Mus musculus [11] = test: Ability to reverse scopolamine-induced amnesia in a passive avoidance test to assess memory impairment administered perorally 1 mg/kg; assay type: functional; details: route oral
Mus musculus [12] = test: Ability to reverse scopolamine-induced amnesia in a passive avoidance test to assess memory impairment administered perorally at 30 mg/kg; assay type: functional; details: route oral
Rattus norvegicus [13] = test: Anticonflict activity on water lick conflict test in rats by measuring no. of shocks in 5 min. administered perorally at 1 mg/kg; assay type: functional; details: route oral
Rattus norvegicus [14] = test: Anticonflict activity on water lick conflict test in rats by measuring no. of shocks in 5 min. administered perorally at 10 mg/kg; assay type: functional; details: route oral
Rattus norvegicus [15] = test: Anticonflict activity on water lick conflict test in rats is no. of shocks in 5 min; administered perorally 10 mg/kg (no. of rats); assay type: functional; details: route oral
Mus musculus [16] = test: Ability to reverse scopolamine-induced amnesia in a passive avoidance test to assess memory impairment; administered perorally 5 mg/kg (no. of mice); assay type: functional; details: route oral

D(2) dopamine receptor, sequence (P14416 whole entry): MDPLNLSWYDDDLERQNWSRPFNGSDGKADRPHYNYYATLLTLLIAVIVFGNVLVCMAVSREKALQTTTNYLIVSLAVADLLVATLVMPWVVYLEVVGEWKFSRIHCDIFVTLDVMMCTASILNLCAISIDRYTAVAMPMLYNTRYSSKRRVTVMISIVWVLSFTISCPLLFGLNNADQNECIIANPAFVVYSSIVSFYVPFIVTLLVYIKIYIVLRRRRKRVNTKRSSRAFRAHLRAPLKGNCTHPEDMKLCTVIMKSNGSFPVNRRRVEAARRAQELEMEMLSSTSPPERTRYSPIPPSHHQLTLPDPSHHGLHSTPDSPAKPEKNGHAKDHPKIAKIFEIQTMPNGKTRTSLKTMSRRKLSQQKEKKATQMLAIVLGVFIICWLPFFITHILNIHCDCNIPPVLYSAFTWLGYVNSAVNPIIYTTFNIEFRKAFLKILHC

Compound	IC50 [1] [nM]	other results
O=C(NN1CCCCC1)[C@H]1Cc2c(sc3ccccc23)CN1	211	
CCCCCCCNC(=O)[C@H]1Cc2c(sc3ccccc23)CN1		IC50 [2]: 126 nM
O=C(NC1CCCCC1)[C@@H]1Cc2c(sc3ccccc23)CN1	> 5000	
CN1[C@@H]2C[C@@H](OC(=O)[C@H](CO)c3ccccc3)C[C@H]1[C@@H]1O[C@@H]12 [SCOPOLAMINE]		Latency to step through (Mus musculus [3]): 16 s
O=C(NC1CC2CCC1C2)[C@H]1Cc2c(sc3ccccc23)CN1 (stereo partly drawn)	66.4	
Cc1ccc(CNC(=O)[C@H]2Cc3c(sc4ccccc34)CN2)cc1	133	
O=C(NC1CCCCC1)[C@H]1Cc2c(sc3ccccc23)CN1	27.2	
O=C(NC1CCCCCC1)[C@H]1Cc2c(sc3ccccc23)CN1	28.4	
CC(C)(C)C1CCC(NC(=O)[C@H]2Cc3c(sc4ccccc34)CN2)CC1 (stereo partly drawn)	52.7	
O=C(NC1CCCCCCC1)[C@H]1Cc2c(sc3ccccc23)CN1	22.9	
O=C1[C@@H]2[C@H]3CC[C@H](C3)[C@@H]2C(=O)N1CCCCN1CCN(c2ncccn2)CC1 [TANDOSPIRONE HYDROCHLORIDE]		Ki (D(2) dopamine receptor): 28 nM
Cl.O=C(NC1CCCCC1O)[C@H]1Cc2c(sc3ccccc23)CN1 (stereo partly drawn)	148	Latency to step through (Mus musculus [4]): 41.6 s; Latency to step through (Mus musculus [5]): 68.2 s; Latency to step through (Mus musculus [6]): 50.8 s; No. of shocks (Rattus norvegicus [7]): 26.1; No. of shocks (Rattus norvegicus [8]): 21.6; No. of shocks (Rattus norvegicus [9]): 34.9
O=C(OC1CCCC1)[C@H]1Cc2c(sc3ccccc23)CN1	121	
O=C(NC12CC3CC(CC(C3)C1)C2)[C@H]1Cc2c(sc3ccccc23)CN1	61.6	
C[C@H](NC(=O)[C@H]1Cc2c(sc3ccccc23)CN1)c1ccccc1	58.4	
O=C(OC1CCCCCCC1)[C@H]1Cc2c(sc3ccccc23)CN1	67.3	
CCCCCCNC(=O)[C@H]1Cc2c(sc3ccccc23)CN1	91.2	
O=C(NC1CCCC1)[C@H]1Cc2c(sc3ccccc23)CN1	111	
CC1CCC(NC(=O)[C@H]2Cc3c(sc4ccccc34)CN2)CC1 (stereo partly drawn)	32.4	
O=C(NCC1CCCCC1)[C@H]1Cc2c(sc3ccccc23)CN1	20.2	
O=C(NCc1ccc2c(c1)OCO2)C1Cc2c(sc3ccccc23)CN1 (single isomer, unassigned)	> 5000	
O=C(OC1CCCCCC1)[C@H]1Cc2c(sc3ccccc23)CN1	55.2	
Cl.O=C(NCc1ccc2c(c1)OCO2)[C@H]1Cc2c(sc3ccccc23)CN1	53.1	Ki [10]: 53.1 nM; Latency to step through (Mus musculus [11]): 94.6 s; Latency to step through (Mus musculus [5]): 89 s; Latency to step through (Mus musculus [12]): 104.7 s; No. of shocks (Rattus norvegicus [13]): 22.1; No. of shocks (Rattus norvegicus [14]): 28.3; No. of shocks (Rattus norvegicus [9]): 22.9
CC1CCCCC1NC(=O)[C@H]1Cc2c(sc3ccccc23)CN1 (stereo partly drawn)	28	
CN1C(=O)CN=C(c2ccccc2)c2cc(Cl)ccc21 [DIAZEPAM]		No. of shocks (Rattus norvegicus [15]): 25.6; Latency to step through (Mus musculus [16]): 10.6 s
O=C(NC1CCC1)[C@H]1Cc2c(sc3ccccc23)CN1	232	
CCC(CC)NC(=O)[C@H]1Cc2c(sc3ccccc23)CN1	126	
O=C(OC1CCCCC1)[C@H]1Cc2c(sc3ccccc23)CN1	50.4	
O=C(Nc1ccccc1)[C@H]1Cc2c(sc3ccccc23)CN1	272	
